# Measured values from patent US8329711B2, “Pyridone-substituted-dihydropyrazolopyrimidinone derivative” (MSD K.K., priority 2007, dated 2012).
# How the values were obtained:
# Wee1 kinase = molecular target: T1, Wee1 kinase (Homo sapiens, UniProt P30291); assay: Wee1 kinase-inhibitory effect (33P-ATP filter assay with GST-tagged Wee1); type: biochemical; conditions: purified GST-Wee1, Poly(Lys,Tyr) substrate, 10 μM ATP, 30° C. for 30 minutes; read-out: Weel-Inhibitory Effect (IC50)
# T1 construct: made in house; host or cells: Sf9 insect cells (recombinant baculovirus)
# From the text: Pharmacological Test 1 (Wee1 Kinase-Inhibitory Effect)
# (1) Purification of Wee1 Kinase:
# A cDNA of Wee1 kinase with glutathion-S-transferase (GST) fused at the amino terminal thereof was inserted into a baculovirus expression vector to construct a recombinant baculovirus, with which cells of an insect cell line Sf9 were infected for high expression therein. The infected cells were collected and solubilized, and then the GST-tagged Wee1 kinase protein was adsorbed by a glutathion column, and eluted from the column with glutathion, and the active fraction was desalted in a desalting column to give a purified enzyme.
# (2) Determination of Wee1 Kinase Activity:
# In determination of the Wee1 kinase activity, a synthetic peptide, Poly(Lys,Tyr) Hydrobromide (Lys:Tyr (4:1)) bought from Sigma was used as the substrate.
# The amount of the reaction liquid was 21.1 μL; and the composition of the reaction buffer was 50 mM Tris-HCl buffer (pH 7.4)/10 mM magnesium chloride/1 mM dithiothreitol. The purified Wee1 kinase, 2.5 μg of the substrate peptide, 10 μM of non-labeled adenosine triphosphate (ATP) and 1 μCi of [γ-^33P]-labeled ATP (2500 Ci/mmol or more) were added to it, and reacted at 30° C. for 30 minutes. Next, 10 μL of 350 mM phosphate buffer was added to the reaction system to stop the reaction. The substrate peptide was adsorbed by a P81 paper filter 96-well plate, then washed a few times with 130 mM phosphate buffer, and its radioactivity was counted with a liquid scintillation counter. The [γ-^33P]-labeled ATP was bought from Amersham Bioscience.
# To add a test compound to the reaction system, the compound was diluted with dimethyl sulfoxide (DMSO) to prepare a series of dilutions. 1.1 μL of each dilution was added to the reaction system. As a control, 1.1 μL of DMSO was added to the reaction system.
# [1] = tested on: Cdc2 (Cdk1) tyrosine 15 phosphorylation in NCI-H1299 cells; assay: Cdc2 (Cdk1) tyrosine 15-phosphorylation-inhibitory effect in NCI-H1299 cells, camptothecin-treated (ELISA); type: cell-based; conditions: Homo sapiens, 200 nM camptothecin 16 hours, then test compound with nocodazole 8 hours, read-out: Cdc2-Y15 Phosphorylation-Inhibitory Effect (H1299, +camptothecin) (EC50)
# From the text: Pharmacological Test 2 (Method of Determining Drug Potency with Cells (Cdc2 (Cdk1) Tyrosine 15-Phosphorylation-Inhibitory Effect))
# Fetal bovine serum (FBS) was gotten from Morgate; media RPMI1640 and DMEM were from Invitrogen; camptothecin was from Sigma; gemcitabine was from Nippon Eli Lilly; nocodazole and protease inhibitor cocktail were from Sigma; rabbit anti-Cdc2 antibody and mouse anti-Cdc2 antibody were from Santa Cruz Biotechnology; rabbit anti-tyrosine 15-phosphorylated Cdc2 antibody and horseradish peroxidase-labeled anti-mouse IgG antibody were from Cell Signaling Technology; sure blue reserve TMB peroxidase substrate was from Kirkegaard and Perry Laboratories.
# Human non-small cell lung cancer cells (NCI-H1299) and human colon cancer cells (WiDr) were gotten from American Type Culture Collection (ATCC).
# In the method of using NCI-H1299 cells, the cells were suspended in a medium of 10% FBS-added RPMI1640, and the cell suspension was applied to a 96-well Nunclondelta-processed plastic plate (bought from Nunc), in an amount of 2000 cells/100 μL/well, in which the cells were incubated overnight in 5% CO2-95% air at 37° C. Camptothecin was dissolved in dimethyl sulfoxide (DMSO), and diluted with a medium of 10% FBS-added RPMI1640, and then this was applied to the plate on which the cells had been previously sowed, in an amount of 50 μL/well in such a manner that the final concentration of camptothecin could be 200 nM. Then, the cells were incubated for 16 hours at 37° C. in 5% CO2-95% air. A test compound was stepwise diluted with DMSO, then diluted with 4000 nM nocodazole-containing, 10% FBS-added RPMI1640, and applied to the plate on which the camptothecin-treated cells had been sowed, in an amount of 50 μL/well. […] Cdc2 was determined through ELISA as follows: A rabbit anti-Cdc2 antibody solution, which had been diluted 200-fold with 50 mM carbonate-bicarbonate buffer (pH 9.6), was applied to a 96-well maxisorpimmuno plate (bought from Nunc), in an amount of 50 μL/well, and statically kept overnight at 4° C. so as to fix the antibody on the plate. […]
# T1 sequence (P30291 whole entry): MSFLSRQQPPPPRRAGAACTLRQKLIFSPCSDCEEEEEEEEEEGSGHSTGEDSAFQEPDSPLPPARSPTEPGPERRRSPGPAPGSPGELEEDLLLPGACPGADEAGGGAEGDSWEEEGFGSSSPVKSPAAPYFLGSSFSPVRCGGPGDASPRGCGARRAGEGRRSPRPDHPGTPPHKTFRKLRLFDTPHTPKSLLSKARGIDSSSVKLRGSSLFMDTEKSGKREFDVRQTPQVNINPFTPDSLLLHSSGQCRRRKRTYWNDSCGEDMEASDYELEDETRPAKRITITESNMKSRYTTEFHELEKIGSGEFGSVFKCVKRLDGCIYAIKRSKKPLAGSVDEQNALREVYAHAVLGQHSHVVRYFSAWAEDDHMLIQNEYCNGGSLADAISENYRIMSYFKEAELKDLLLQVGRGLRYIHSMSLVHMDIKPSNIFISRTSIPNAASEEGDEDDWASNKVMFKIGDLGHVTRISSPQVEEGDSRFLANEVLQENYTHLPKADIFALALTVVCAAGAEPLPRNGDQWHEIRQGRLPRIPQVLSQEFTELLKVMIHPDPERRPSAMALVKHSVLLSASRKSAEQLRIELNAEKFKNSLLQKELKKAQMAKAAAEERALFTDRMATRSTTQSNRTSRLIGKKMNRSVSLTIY
Structure (SMILES),IC50 (Wee1 kinase) [nM],EC50 [1] [nM]
"C=CCn1c(=O)c2cnc(Nc3ccc(N4CCN(C)CC4)cc3)nc2n1-c1cccc(-n2ccccc2=O)n1 [Example 1, 6′-(2-allyl-6-{[4-(4-methylpiperazin-1-yl)phenyl]amino}-3-oxo-2,3-dihydro-1H-pyrazolo[3,4-d]pyrimidin-1-yl)-2H-1,2′-bipyridin-2-one]",16,190
"C=CCn1c(=O)c2cnc(Nc3ccc4c(c3)CN(C)CC4)nc2n1-c1cccc(-n2ccccc2=O)n1 [Example 30, 6′-{2-Allyl-6-[(2-methyl-1,2,3,4-tetrahydroisoquinolin-7-yl)amino]-3-oxo-2,3-dihydro-1H-pyrazolo[3,4-d]pyrimidin-1-yl}-2H-1,2′-bipyridin-2-one]",17.9,180
"C=CCn1c(=O)c2cnc(Nc3ccc(N4CCN(C)CC4)cc3)nc2n1-c1cccc(-n2cc(F)ccc2=O)n1 [Example 5, 6′-(2-allyl-6-{[4-(4-methylpiperazin-1-yl)phenyl]amino}-3-oxo-2,3-dihydro-1H-pyrazolo[3,4-d]pyrimidin-1-yl)-5-fluoro-2H-1,2′-bipyridin-2-one]",18,260
